In data set [1] the target is full-length NS3/NS4A complex (Hepatitis C virus genotype 1a, UniProt P27958). The experiment in a line: biochemical. An excerpt: Operating Method for HCV NS3-4A Activity Assay:
Inhibition data were obtained on the full-length NS3/NS4A complex. […] A summary of the NS3 protease activity assay is described bellow.
We used the full-length NS4A-NS3 protease and a recombinant EGPF-NS5A/B-CBD fusion protein serving as a fluorescent substrate for the determination of the compounds activity.
The fluorogenic substrate was built in three parts: a Green fluorescent protein (EGFP), a peptide corresponding to the NS5A-NS5B junctions ([…]) and a Cellulose Binding Domain (CBD). The NS5A/B is the more efficiently cleavage site for NS3 than at other cleavage site of HCV polyprotein (references 15). After cleavage reaction of EGFP-NS5A/B-CBD by NS3, the un-cleaved substrate and the C-terminal domain of cleaved substrate are fixed on cellulose. After centrifugation, the released free EGFP-NS5A was quantified by fluorometry.
The inhibitors were tested in triplicate in each experiment. The inhibitor was pre-incubated with the NS3 enzyme (50 nM final concentration) for 5 minutes at 37° C. The substrate was added (100 nM final concentration) and incubated at 37° C. for 40 minutes. Then, the reaction mixture was transferred into an Eppendorf containing 5 mg of pre-equilibrated cellulose with reaction buffer 1× and agitated at room temperature for 10 minutes followed by centrifugation for 5 min at 13000 rpm. The supernatant (100 μL) containing liberated green fluorescent protein was transferred to a black 96 well plate and data was collected by a fluorometer (excitation λ=485 nm, and emission λ=538 nm). For each black 96 well plate the control of the activity and inhibition of NS3 protease, fluorescence background noise and the measure of the total fluorescence were performed. The fluorogenic substrate EGFP-NS5A/B-CBD at 100 nM final concentration was incubated with NS3 protease at 50 nM final concentration for the control of the NS3 activity. The inhibitors Ac-Asp-D-Gla-Leu-Ile-β-cyclohexyl-Ala-Cys-OH (CHAC), (references 16) PMSF and TPCK were used at various concentrations to validate the inhibition of NS3 protease reaction. The fluorescence background noise was obtained with the fluorogenic substrate EGFP-NS5A/B-CBD at 100 nM, and the control of the maximum fluorescence was obtained with the fluorogenic substrate EGFP-NS5A/B-CBD at 100 nM without the step of the fixation on pre-equilibrated cellulose.

For a further data set, the system named is four different strains. Briefly: ames test. To be noted: with or without metabolic activation. The source says: The compounds of the present invention present the advantage to be non bactericidal and/or non mutagenic. The ames test with four different strains, with or without metabolic activation, has been carried out with the above cited compounds (in particular, compound 5). The results thereof have shown that the compounds above identified (in particular, compound 5) are non mutagenic.

The next data set deals with HCV. The experiment in a line: HCV replication in primary cultures of human hepatocytes infected in vitro. Format: cell-based, HCV genotype 3 (serum S183) in human hepatocytes. To be noted: 1 μM of compound; hepatocyte cultures FT200, FT201, FT203; 5 days; FIG. 5. Here is the method: More particularly, the in vitro primary cultures of human hepatocytes were prepared as follows: hepatocytes were prepared from liver tissue resected from donors who tested negative for HCV, and inoculation was performed 3 days after plating with 33 HCV serum samples of different virus load and genotype. The presence of intracellular HCV RNA, detected by a strand-specific rTth RT-PCR assay, was used as evidence of infection. […] At day 5, the copy level of viral RNA was estimated to be amplified at least 15-fold in infected cells. […] This model represents therefore a valuable tool for the study of initial steps of the HCV replication cycle and for the evaluation of antiviral molecules.
The basic protocol was as follows: 1) human hepatocytes extracted from liver lobectomies of HCV-negative patients were cultured in the long-term culture system mentioned above; 2) cells were then infected in vitro with an aliquot of serum from HCV-positive patients; 3) after a few days of culture (1 to 14 days), cellular RNA was extracted and analyzed for HCV RNA (+) and (−) strands using a highly specific rtTh. […]
RNA was extracted and analyzed using: first, rtTh RT-PCR and agarose gel electrophoresis (control of the presence of the replicative strand); and second, quantitative RT-PCR using (a) the genomic strand of HCV, and (b) GAPDH RNA/GAPDH RNA as an internal control. […]

The mark [2] stands for this setting: enzyme 50 nM, substrate 100 nM, 37° C., 40 minutes, read-out: NS3 IC50.

Read-outs that look alike come from different tables or passages of the source. Non-standard residues stand in square brackets, D forms with d. Residues, ends and D or L forms follow the SMILES beside them. *: point of attachment. dGla = N[C@H](CC(C(=O)O)C(=O)O)C(=O)O; Hyp = O=C(O)[C@@H]1C[C@@H](O)CN1; Cha = N[C@@H](CC1CCCCC1)C(=O)O; Abu = CC[C@H](N)C(=O)O; tBu = CC(C)(C)*

full-length NS3/NS4A complex, sequence (P27958 1027-1657): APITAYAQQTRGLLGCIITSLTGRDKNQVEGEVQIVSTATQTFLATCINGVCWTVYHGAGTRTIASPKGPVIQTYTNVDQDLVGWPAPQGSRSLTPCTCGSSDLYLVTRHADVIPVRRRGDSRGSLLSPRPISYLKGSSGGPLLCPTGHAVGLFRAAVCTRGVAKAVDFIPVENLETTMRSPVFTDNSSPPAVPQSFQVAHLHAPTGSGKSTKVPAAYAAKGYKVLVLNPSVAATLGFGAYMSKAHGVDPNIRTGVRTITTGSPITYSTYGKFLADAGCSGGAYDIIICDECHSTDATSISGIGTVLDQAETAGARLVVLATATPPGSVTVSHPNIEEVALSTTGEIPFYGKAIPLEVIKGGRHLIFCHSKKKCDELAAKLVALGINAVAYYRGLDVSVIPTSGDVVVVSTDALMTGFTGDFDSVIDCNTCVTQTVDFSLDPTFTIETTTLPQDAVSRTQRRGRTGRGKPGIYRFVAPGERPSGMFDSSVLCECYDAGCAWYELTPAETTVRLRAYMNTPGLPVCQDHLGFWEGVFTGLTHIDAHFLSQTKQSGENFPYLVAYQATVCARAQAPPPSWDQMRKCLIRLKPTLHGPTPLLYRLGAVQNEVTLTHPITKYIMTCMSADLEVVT
full-length NS3/NS4A complex, sequence (P27958 1658-1711): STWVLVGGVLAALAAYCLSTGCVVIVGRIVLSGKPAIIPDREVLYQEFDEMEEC

Usually IC50 stands for the point on the concentration scale where inhibition reaches its midpoint. Consider `CC[C@H](C)[C@H](NC(=O)[C@H](CC(C)C)NC(=O)[C@@H](CC(C(=O)O)C(=O)O)NC(=O)[C@H](CC(=O)O)NC(C)=O)C(=O)N[C@@H](CC1CCCCC1)C(=O)N[C@@H](CS)C(=O)O` [CHAC, Ac-Asp-D-Gla-Leu-Ile-β-cyclohexyl-Ala-Cys-OH, reference compound] (Ac-D[dGla]LI[Cha]C-OH), for which, in data set [1], the IC50 is 0.04 µM.
Regarding `CC(C)(C)OC(=O)N[C@@H](CCC(=O)O)C(=O)N1C[C@H](OC(C)(C)C)C[C@H]1C(=O)NC(CC(F)(F)F)C(=O)O` (stereo partly drawn) [Compound 5], in the data set with four different strains, the “mutagenicity (ames test)” value is on record as “non mutagenic”. Also, the IC50 in data set [1] (setting [2]) is 150 µM. For the same compound, in the data set on HCV, the “Inhibitory effect expressed as the ratio HCV RNA/GAPDH RNA” value is on record as “significant inhibitory effect”.
Regarding `CC[C@H](NC(=O)[C@@H]1C[C@@H](OC(C)(C)C)CN1C(=O)[C@@H](NC(C)=O)C(C)C)C(=O)O` [Compound 18] (Ac-Val-[Hyp](tBu)-[Abu]-OH), the 50% inhibitory concentration (IC50) in data set [1] (setting [2]) amounted to 30 µM.
`Cc1ccc(S(=O)(=O)NC(Cc2ccccc2)C(=O)CCl)cc1` [TPCK, L-1-4′-Tosylamino-2-phenylethyl chloromethyl ketone, reference compound] showed a concentration for half-maximal inhibition (IC50) in data set [1] of 900 µM.

These data come from patent US20060142204A1, “Pyrrolidine derivatives for use in treating heaptitis c virus infection” (GENOSCIENCE, priority 2002, published 2006).
